Read-outs that look alike come from different tables or passages of the source.

From patent EP4635958A1, “PYRIMIDINE-CONTAINING POLYCYCLIC DERIVATIVE INHIBITOR, AND PREPARATION METHOD THEREFOR AND USE THEREOF” (Shanghai Hansoh Biomedical Co., Ltd., priority 2022, dated 2024) come the findings set out here.

The nature of series [1]: Pharmacokinetic determination in rats (IV and PO, plasma, LCMS/MS). Format: in vivo, SD rats. Conditions: for AUC(0-inf): read-out: AUCo-∞. The method, boiled down: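 Male SD rats (3/group), fasted overnight, dosed PO at 30 mg/kg in 10% Captisol/50 mM citrate pH 5.0 or IV at 1 mg/kg in 5% DMSO/10% Solutol HS15/85% PBS. Jugular plasma (EDTA-2K) sampled predose to 24 h; analysed by LCMS/MS.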

Series [2] in a line: Pharmacokinetic determination in mice (IV and PO, plasma, LCMS/MS). It is filed as in vivo, Balb/c mice. Conditions: male, Balb/c, mouse, in vivo. The essentials: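 Male Balb/c mice, fasted overnight (n=3 per route): PO 30 mg/kg in 10% Captisol/50 mM citrate pH 5.0, or IV 1 mg/kg in 5% DMSO/10% Solutol HS15/85% PBS. Orbital blood sampled predose to 24 h; EDTA plasma analysed by LC-MS/MS.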

In series [3] the test system is human colorectal cancer cell line (GP2D). Kind of series: Anti-tumor efficacy in mouse transplanted tumor model of human colorectal cancer cell line (GP2D). It is filed as in vivo, mice (BALB/c nude).
The next series deals with p-ERK in AGS cells. The series is described as follows: Inhibition of p-ERK in AGS cells (LANCE Ultra phospho-ERK1/2 kit). It is filed as cell-based. The following applies: read-out: AGS_pERK IC50. On the procedure: 1. Experimental objective: The inhibition activity of the example compounds on the phosphorylated ERK level in KRAS G12D mutant cells AGS was determined. 2. Experimental instruments: • 2.1 Instruments: Envison; Pipette (Eppendorf & Rainin) • 2.2 Reagents: AGS cells were purchased from COBIOER BIOSCIENCES CO., LTD, with a catalog number of CBP60476; Phosphorylated ERK1/2 (T202-Y204) LANCE Ultra Cellular Detection Kit was purchased from PerkinElmer, with a catalog number of TRF4000M; RPMI 1640 was purchased from Gibco, with a catalog number of 22400071; FBS was purchased from Gibco, with a catalog number of 10091148; PBS was purchased from Gibco, with a catalog number of 10010023; trypsin was purchased from Gibco, with a catalog number of 25200056; cell culture plates were purchased from Corning Company, with a catalog number of 3610; White opaque OptiPlate™-384 plates were purchased from PerkinElmer, with a catalog number of 6007290. 3. Experimental method: When AGS cells were cultured to appropriate confluence, the AGS cells were collected, and the cell density was adjusted to 4 × 10^5/mL using complete culture medium. The cell suspension was plated onto a 96-well plate at 100 µL per well, and the plate was placed in the incubator at 37°C and 5% CO2 for adherent culture overnight. Solutions of the compound with different concentrations were formulated using DMSO and complete culture medium, and a vehicle control was set up. The solutions of the compound were added to the 96-well plate at 25 µL per well, and the plate was placed in the incubator at 37°C and 5% CO2 for further culture for 2 h. Then, the supernatant of the cell culture plate was discarded, 50 µL of lysis buffer was added to each well, the cells were lysed at room temperature under shaking for 30 min, then placed in a centrifuge and centrifuged at 1000 rpm for 1 min. 15 µL of supernatant was transferred to a 384-well plate, 5 µL of detection mixture was added to each well (Eu-labeled anti-ERK1/2 (T202-Y204) Antibody at a final detection concentration of 0.5 nM and ULight labeled anti-ERK1/2 Antibody at a final detection concentration of 5 nM), centrifuged at 1000 rpm for 1 min, mixed evenly, and reacted at room temperature overnight. The plate was read using Envison and the signal values at the emission wavelengths of 620 nm and 665 nm were detected using a time-resolved fluorescence program. 4. […] Graphpad Prism software was used to fit the concentration and inhibition rate to a nonlinear regression curve, so as to obtain the IC50 value. Table 5: Inhibition activity of the compounds on p-ERK in AGS cells
On the technique in general: TR-FRET usually uses a lanthanide donor and a delayed reading to cut background.

The test system of a further series is GP2D. The series is described as follows: Inhibition of proliferation of KRAS G12D mutant tumor cell line GP2D (CellTiter-Glo). The following applies: read-out: GP2D IC50. (In general: ATP-based viability assays read luminescence as a measure of living cells.)
The subject of series [4] is human pancreatic cancer cell line (HPAC). Kind of series: Antitumor efficacy in mouse transplanted tumor model of human pancreatic cancer cell line (HPAC). It is filed as in vivo, mice (BALB/c nude). Conditions: Table 12, HPAC xenograft, 100mpk, PO*BID; for Tumor volume (mm^3, Mean ± SD) Day 0: Day 0 (baseline). The text has this: 8-10 week old female conventional immunodeficient mice (BALB/c nude) with a body weight of 18 g-22 g were used as experimental animals, and a transplanted tumor model of human pancreatic cancer cell line (HPAC) was used to conduct in vivo efficacy experiments to test the anti-tumor results of the example compounds after gavage administration.
The example compounds of the present invention, made in house.
A certain amount of the example compound was weighed, and an appropriate amount of 10% vehicle (Solutol HS15) was added. The mixture was stirred on a magnetic stirrer for 0.5 h to formulate a homogeneous suspension at the desired concentration.
Human pancreatic cancer cell line (HPAC) was derived from COBIOER BIOSCIENCES CO., LTD, cultured on DMEM/F12 medium (Gibco, 11330-032) supplemented with 10% fetal calf serum (Gibco, 10091-148), 1×Insulin (51500-056, Gibco) and 10 ng/ml of EGF (PHG0311, Gibco) and observed under a microscope (Thermo Fisher, 311). The cells were routinely passaged when the cells reached 80%-90% confluence in the culture flask. The passaged cells were cultured in a 37°C, 5% CO2 incubator (Thermo Fisher, 311).
Under aseptic conditions, human pancreatic cancer cells (HPAC) in the logarithmic growth phase were harvested using 0.25% trypsin-EDTA (Gibco, 25200-056), washed and resuspended with phosphate buffer. The cell suspension was mixed with Matrigel (Corning, 356234) at a 1 : 1 ratio (v/v) and implanted subcutaneously into the right anterior dorsal region of immunodeficient mice (BALB/c nude). Each mouse was inoculated with 3*10^6 cells in a volume of 100 microliters (µL). After inoculation, when the tumor volume reached 100-200 mm^3, the mice would be evenly randomized into 5 groups based on the tumor size, with 5 mice per group, for in vivo efficacy experiments. The negative control group was the vehicle group.
Mode of administration: The example compounds were administered orally.
Twice a week, the long and short diameters of the tumor were measured using a vernier caliper, and the tumor volume (mm^3) was calculated using the formula: V = 0.5*D*d*d, where D and d are the long and short diameters of the tumor, respectively. The anti-tumor efficacy was determined by dividing the average increase in tumor volume of compound-treated animals by the average increase in tumor volume of untreated animals. The calculation formula for tumor inhibition rate was: When there is no tumor regression, TGI(%) = 100-[(Vt-V0) administration group/(Vt-V0) vehicle control group]*100%. When tumor regression occurs, TGI(%) = [1-(Vt-V0) administration group/V0 vehicle control group]*100%. All animals were euthanized after the experiment.
In general terms: In xenograft studies the graft and the host belong to different species.

Another series deals with AsPC-1. Kind of series: Inhibition of proliferation of KRAS G12D mutant tumor cell line AsPC-1 (CellTiter-Glo). Conditions: Homo sapiens, ASPC1, about 72 h. It is filed as cell-based. The essentials: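 KRAS G12D-mutant AsPC-1 cells plated overnight at 37 °C/5% CO2, then exposed to serial compound dilutions (DMSO/medium, vehicle control) for about 72 h. Viability read by CellTiter-Glo luminescence; inhibition rate vs concentration fitted by nonlinear regression for IC50.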

The mark [5] stands for this setting: male, SD, rat, in vivo, iv, 1 mg/kg.
Setting [6] is: male, SD, rat, in vivo, po, 30 mg/kg.

The AUC is concentration integrated over time. Read a high AUC as high exposure. For orientation: Cmax means the highest concentration seen after dosing. As a reminder, the Tmax is the time at which the peak concentration occurs. As for `C#Cc1c(F)ccc2cc(O)cc(-c3ncc4c(N5CC6CCC(C5)N6)nc(OC[C@@]56CCCN5C[C@H](F)C6)nc4c3F)c12` [MRTX-1133, reference compound], in series [1] (setting [5]), the AUC is 367 ng·h/mL, the C0 is 2490 ng/mL, the clearance was 45 mL/min/kg and the half-life is 2.7 h. For the same molecule, in series [1] (setting [6]), the highest level (Cmax) was 11 ng/mL and the Tmax was 2 h. In series [2] (iv, 1 mg/kg), the AUC worked out at 305 ng·h/mL, the C0 is 854 ng/mL, the clearance was determined as 55 mL/min/kg and the half-life is 11.1 h. Moreover, in series [2] (po, 30 mg/kg), the highest level (Cmax) was 11 ng/mL and the time of peak concentration (Tmax) amounted to 2 h. In addition, in series [3] (10mpk, IV*BID, Day 0), the “Tumor volume (mm^3, Mean ± SD) Day 0” value is given as 167 mm^3. In series [3] (10mpk, IV*BID, Day 14), the “TGI(%) Day 14” value is on record as 143.79%; the “Tumor volume (mm^3, Mean ± SD) Day 14” value is 94 mm^3; the “ΔT/ΔC(%) Day 14” value is recorded as 11.89%. For the same molecule, the “tumor inhibition effect (in words)” value in series [3] (intravenous administration dose of 10 mg/kg) is reported as “inhibition effect of tumor regression”.
The term IC50 denotes the midpoint of a concentration-inhibition curve. With “3-chloro-5-((5S,5aS,6R,9S)-5-ethyl-1-fluoro-12-((1-((4-(fluoromethylene)piperidin-1-yl)methyl-d2)cyclopropyl)methoxy-d2)-5a,6,7,8,9,10-hexahydro-5H-4-oxa-3,10a,11,13,14-pentaaza-6,9-methylnaphtho[1,8-ab]hept-2-yl)-4-(trifluoromethyl)aniline [Example 330]”, in the series with p-ERK in AGS cells (AGS cells, 2 h with compound), the IC50 came to 3.8 nM. Also, in the series on GP2D (proliferation, about 72 h, CellTiter-Glo), the IC50 amounted to 0.17 nM. In series [4], the “Tumor volume (mm^3, Mean ± SD) Day 0” value came to 468 mm^3; the “TGI(%) Day 14” value is on record as 110.18%; the “ΔT/ΔC(%) Day 14” value stood at 43.78%; the “Tumor volume (mm^3, Mean ± SD) Day 21” value is 418 mm^3.
Consider `C#Cc1c(F)ccc2cc(O)cc(-c3nc4c5c(nc(OCC6(CN7CCC(=CF)CC7)CC6)nc5c3F)N3C[C@H]5CC[C@H](N5)[C@H]3[C@H](CC)O4)c12` [Example 137, 4-((5S,5aS,6S,9R)-12-((1-((4-(fluoromethylene)piperidin-1-yl)methyl)cyclopropyl)methoxy)-5-ethyl-1-fluoro-5a,6,7,8,9,10-hexahydro-5H-4-oxa-3,10a,11,13,14-pentaaza-6,9-methylnaphtho[1,8-ab]hept-2-yl)-5-ethynyl-6-fluoronaphthalen-2-ol], for which the F in series [1] (PO 30 mg/kg vs IV 1 mg/kg, male SD rats) turned out to be 9.7%. In addition, the AUC(0-inf) amounted to 793 ng·h/mL in series [1] (rat, in vivo, IV, 1 mg/kg, male SD rats, overnight fasting, plasma) and 2110 ng·h/mL in series [1] (rat, in vivo, PO, 30 mg/kg, male SD rats, overnight fasting, plasma). In addition, the C0 in series [1] (rat, in vivo, IV, 1 mg/kg, male SD rats, overnight fasting, plasma, read-out: C0) worked out at 1630 ng/mL. Besides, the clearance in series [1] (rat, in vivo, IV, 1 mg/kg, male SD rats, overnight fasting, plasma, read-out: CL) was found to be 21 mL/min/kg. For the same molecule, the half-life in series [1] (rat, in vivo, IV, 1 mg/kg, male SD rats, overnight fasting, plasma, read-out: T1/2 (converted)) was 11.3 h; in series [1] (rat, in vivo, PO, 30 mg/kg, male SD rats, overnight fasting, plasma, read-out: T1/2 (converted)), 6.2 h. Moreover, in series [1] (rat, in vivo, PO, 30 mg/kg, male SD rats, overnight fasting, plasma, read-out: Cmax), the Cmax is 271 ng/mL. The Tmax in series [1] (rat, in vivo, PO, 30 mg/kg, male SD rats, overnight fasting, plasma, read-out: Tmax) is 4 h. Further, the IC50 in the series with p-ERK in AGS cells (Homo sapiens, AGS, 2 h) came out at 5.8 nM; with GP2D (Homo sapiens, GP2d, 72 h), 0.41 nM.
Regarding `[2H]C([2H])([2H])[C@@H]1Oc2nc(-c3cc(N)cc(Cl)c3C(F)(F)F)c(F)c3nc(OC([2H])([2H])C4(C([2H])([2H])N5CCC(=NOC)CC5)CC4)nc(c23)N2C[C@H]3CC[C@H](N3)[C@@H]12` [Example 341, 1-((1-((((5S,5aS,6S,9R)-2-(5-amino-3-chloro-2-(trifluoromethyl)phenyl)-1-fluoro-5-(methyl-d3)-5a,6,7,8,9,10-hexahydro-5H-4-oxa-3,10a,11,13,14-pentaaza-6,9-methylnaphtho[1,8-ab]heptene-12-yl)oxy)methyl-d2)cyclopropyl)methyl-d2)piperidin-4-one O-methyloxime], the IC50 in the series on AsPC-1 was 2.6 nM. Further, in the series on p-ERK in AGS cells (Homo sapiens, AGS, 2 h), the IC50 is 4.2 nM. Moreover, the IC50 in the series on GP2D (Homo sapiens, GP2d, 72 h) worked out at 0.1 nM. Besides, in series [4], the “Tumor volume (mm^3, Mean ± SD) Day 0” value is given as 469 mm^3; the “TGI(%) Day 14” value is 161.42%; the “ΔT/ΔC(%) Day 14” value turned out to be 18.73%; the “Tumor volume (mm^3, Mean ± SD) Day 21” value was 180 mm^3.
